The structures appear in SMILES notation. ≈ marks a conversion by molar mass, not a printed value. Calls of active or inactive are those of the source. No cut-off for these calls is given here.

One may read the inhibition as the percentage by which the read-out fell short of the control. What is called MIC is the lowest concentration found to suppress growth. What is called MFC is the lowest tested concentration that kills the fungus rather than only halting it.

Series [1] concerns Candida albicans. Description: Antifungal activity against Candida albicans 90028 ATCC assessed as inhibition of growth at 16 ug/ml after 48 hrs relative to control. Type of series: functional.
The subject of series [2] is Candida albicans. Description: Antifungal activity against Candida albicans 90028 ATCC assessed as inhibition of growth at 8 ug/ml after 48 hrs relative to control. Type of series: functional.
For series [3], the system named is Candida albicans. Description: Antifungal activity against Candida albicans 90028 ATCC assessed as inhibition of growth at 4 ug/ml after 48 hrs relative to control. Type of series: functional.
Series [4] deals with Candida albicans. Description: Antifungal activity against Candida albicans 90028 ATCC assessed as inhibition of growth at 2 ug/ml after 48 hrs relative to control. Type of series: functional.
The subject of series [5] is Candida albicans. Description: Antifungal activity against Candida albicans 90028 ATCC assessed as inhibition of growth at 1 ug/ml after 48 hrs relative to control. Type of series: functional.
The test system of series [6] is Candida albicans. As to the kind of experiment: Antifungal activity against Candida albicans 90028 ATCC assessed as inhibition of growth at 0.5 ug/ml after 48 hrs relative to control. Type of series: functional.
Series [7] relates to Candida albicans. As to the kind of experiment: Antifungal activity against Candida albicans 90028 ATCC assessed as inhibition of growth at 0.25 ug/ml after 48 hrs relative to control. Type of series: functional.
Series [8] concerns Candida albicans. As to the kind of experiment: Antifungal activity against Candida albicans 90028 ATCC assessed as inhibition of growth at 0.12 ug/ml after 48 hrs relative to control. Type of series: functional.
Series [9] concerns Candida albicans. Description: Antifungal activity against Candida albicans 90028 ATCC assessed as inhibition of growth at 0.06 ug/ml after 48 hrs relative to control. Type of series: functional.
Series [10] has as its system Candida albicans. As to the kind of experiment: Antifungal activity against Candida albicans 90028 ATCC assessed as inhibition of growth at 0.03 ug/ml after 48 hrs relative to control. Type of series: functional.
The test system of series [11] is Candida albicans. Description: Antifungal activity against Candida albicans 90028 ATCC assessed as decrease in turbidity after 48 hrs relative to control. Type of series: functional.
In series [12] the test system is Candida albicans. As to the kind of experiment: Antifungal activity against Candida albicans 90028 ATCC assessed as reduction in 99% growth after 48 hrs relative to control. Type of series: functional.
A short description of series [13]: Cytotoxicity against african green monkey Vero cells assessed as reduction in cell viability at 64 to 256 ug/mL after 6 hrs by XTT assay. Type of series: cell-based. Conditions: chlorocebus sabaeus, read-out: INH. In general terms: Formazan colour is commonly taken as a measure of viable cells.
Series [14] is described as follows: Cytotoxicity against african green monkey Vero cells assessed as reduction in cell viability at 4 to 32 ug/mL after 6 hrs by XTT assay. Type of series: cell-based. As to conditions: chlorocebus sabaeus, read-out: INH.
In a further series the test system is Vero. As to the kind of experiment: Cytotoxicity against african green monkey Vero cells assessed as reduction in cell viability at 2 to 0.125 ug/mL after 6 hrs by XTT assay. Type of series: cell-based. As to conditions: chlorocebus sabaeus.
For series [15], the system named is Candida albicans. As to the kind of experiment: Inhibition of Wild type Candida albicans SC5314 adhesion to the Caco-2 cell line. Type of series: functional.
The subject of series [16] is Candida albicans. As to the kind of experiment: Inhibition of Candida albicans kex delta CNA1 mutant adhesion to the Caco-2 cell line. Type of series: functional, organism-based.
In series [17] the test system is Candida albicans. As to the kind of experiment: Inhibition of Candida albicans with loss of one copy KEX2 allele and both copies of URA3 CNA2 mutant adhesion to the Caco-2 cell line. Type of series: functional.
In series [18] the test system is Candida albicans. Description: Inhibition of Candida albicans with loss of both copies KEX2 allele and both copies of URA3 CNA4 mutant adhesion to the Caco-2 cell line. Type of series: functional, organism-based.
Series [19] relates to Candida albicans. Description: Inhibition of Candida albicans 1008 with trp1/kex2 delta mutant adhesion to the Caco-2 cell line. Type of series: functional.
Series [20] deals with Candida albicans. Description: Inhibition of Candida albicans 1008 adhesion to the Caco-2 cell line. Type of series: functional.
Another series has as its system Nakaseomyces glabratus. As to the kind of experiment: Inhibition of Candida glabrate 1010 with kex2 delta mutant and functional TRP1 adhesion to the Caco-2 cell line. Type of series: organism-based.
Series [21] has as its system Candida albicans. As to the kind of experiment: Inhibition of Candida albicans bioflim formation during Caco2 cell invasion assessed as sessile growth at 16 ug/ml after 18 hrs by confocal laser scanning microscopy. Type of series: functional, organism-based. Conditions: Caco-2.
In series [22] the test system is Candida albicans. Description: Inhibition of Candida albicans bioflim formation during Caco2 cell invasion assessed as lack of hyphea at 1 ug/ml after 18 hrs by confocal laser scanning microscopy. Type of series: functional, organism-based. As to conditions: Caco-2.
The test system of series [23] is Candida albicans. Description: Inhibition of wild type Candida albicans adherence to Caco2 cells at 16 ug/ml after 18 hrs. Type of series: functional. Conditions: Caco-2, 18 h.

As for `CC(=O)OC(C)CCn1nnc(-c2ccccc2)n1` (racemic), the inhibition at 16 µg/mL with Candida albicans [1] came out at 98.8%. Moreover, the inhibition at 8 µg/mL in the series with Candida albicans [2] came to 99%. Besides, the inhibition at 4 µg/mL in the series with Candida albicans [3] was found to be 99%. For the same molecule, the inhibition at 2 µg/mL in the series on Candida albicans [4] is 98.9%. Besides, the inhibition at 1 µg/mL with Candida albicans [5] is 98.9%. Further, the inhibition at 0.5 µg/mL in the series on Candida albicans [6] turned out to be 98.9%. Besides, the inhibition at 0.25 µg/mL in the series on Candida albicans [7] was found to be 99%. Also, the inhibition at 0.12 µg/mL with Candida albicans [8] stood at 98.9%. The inhibition at 0.06 µg/mL in the series with Candida albicans [9] amounted to 98.9%. The inhibition at 0.03 µg/mL with Candida albicans [10] is 98.9%. Moreover, in the series on Candida albicans [11], the MIC stood at 4 µg/mL (≈ 15.4 µM).
Turning to `CC(=O)OC(C)CCn1nnc(-c2ccc(C)cc2)n1` (racemic), the inhibition at 16 µg/mL with Candida albicans [1] stood at 98.9%. Also, the inhibition at 8 µg/mL with Candida albicans [2] was found to be 99%. The inhibition at 4 µg/mL in the series on Candida albicans [3] turned out to be 99%. Besides, the inhibition at 2 µg/mL in the series on Candida albicans [4] worked out at 99%. Further, in the series with Candida albicans [5], the inhibition at 1 µg/mL was determined as 98.9%. Besides, the inhibition at 0.5 µg/mL with Candida albicans [6] stood at 98.9%. Moreover, the inhibition at 0.25 µg/mL in the series on Candida albicans [7] was found to be 99%. Further, in the series with Candida albicans [8], the inhibition at 0.12 µg/mL was 98.9%. Further, in the series on Candida albicans [9], the inhibition at 0.06 µg/mL amounted to 98.9%. Moreover, in the series with Candida albicans [10], the inhibition at 0.03 µg/mL was 98.9%. In addition, the MIC in the series with Candida albicans [11] was found to be 4 µg/mL (≈ 14.6 µM).
For the molecule `CC(=O)OC(C)CCn1nnc(-c2ccccc2Cl)n1` (racemic), the inhibition at 16 µg/mL with Candida albicans [1] turned out to be 98.9%. In addition, the inhibition at 8 µg/mL with Candida albicans [2] was found to be 99%. In addition, the inhibition at 4 µg/mL in the series on Candida albicans [3] came out at 99%. Further, the inhibition at 2 µg/mL in the series on Candida albicans [4] was found to be 98.9%. Also, the inhibition at 1 µg/mL in the series on Candida albicans [5] amounted to 98.9%. Further, the inhibition at 0.5 µg/mL in the series on Candida albicans [6] amounted to 98.9%. Further, in the series with Candida albicans [7], the inhibition at 0.25 µg/mL is 98.9%. Besides, the inhibition at 0.12 µg/mL with Candida albicans [8] amounted to 98.9%. In the series on Candida albicans [9], the inhibition at 0.06 µg/mL worked out at 98.9%. For the same molecule, in the series on Candida albicans [10], the inhibition at 0.03 µg/mL was found to be 98.9%. The MIC with Candida albicans [11] was determined as 4 µg/mL (≈ 13.6 µM).
As for `CC(=O)OC(C)Cn1nnc(-c2ccc(C)cc2)n1` (racemic), the inhibition at 16 µg/mL with Candida albicans [1] was determined as 99%. Moreover, the inhibition at 8 µg/mL in the series with Candida albicans [2] was 99%. Also, the inhibition at 4 µg/mL in the series on Candida albicans [3] amounted to 99.1%. In addition, the inhibition at 2 µg/mL in the series with Candida albicans [4] amounted to 99%. Also, in the series on Candida albicans [5], the inhibition at 1 µg/mL was found to be 99.1%. For the same molecule, the inhibition at 0.5 µg/mL in the series with Candida albicans [6] was 99%. The inhibition at 0.25 µg/mL in the series with Candida albicans [7] amounted to 98.9%. Further, the inhibition at 0.12 µg/mL with Candida albicans [8] is 99%. Also, in the series on Candida albicans [9], the inhibition at 0.06 µg/mL was determined as 98.9%. For the same molecule, in the series with Candida albicans [10], the inhibition at 0.03 µg/mL is 98.7%. In the series with Candida albicans [11], the MIC turned out to be 0.5 µg/mL (≈ 1.92 µM).
For the molecule `CC(=O)OC(C)Cn1nnc(-c2ccccc2Cl)n1` (racemic), the inhibition at 16 µg/mL in the series on Candida albicans [1] came to 99%; in the series on Candida albicans [23], 86%. For the same molecule, the inhibition at 8 µg/mL in the series on Candida albicans [2] came out at 99%. Further, in the series with Candida albicans [3], the inhibition at 4 µg/mL is 99%. For the same molecule, in the series with Candida albicans [4], the inhibition at 2 µg/mL was 99%. The inhibition at 1 µg/mL in the series with Candida albicans [5] was 99%. Moreover, the inhibition at 0.5 µg/mL in the series with Candida albicans [6] was 99%. In addition, the inhibition at 0.25 µg/mL in the series on Candida albicans [7] came to 99%. Besides, in the series on Candida albicans [8], the inhibition at 0.12 µg/mL was 99%. In addition, the inhibition at 0.06 µg/mL in the series with Candida albicans [9] worked out at 98.9%. Also, in the series on Candida albicans [10], the inhibition at 0.03 µg/mL is 98.9%. The MFC in the series with Candida albicans [12] was 0.0313 µg/mL (≈ 0.112 µM). The cytotoxicity at 6 h in [13] turned out to be 13%; in [14] it was 4%. The Activity entry with Vero is listed as “Non-toxic”. Further, the “inhibition (INH)” value with Candida albicans [15] came to 86%; with Candida albicans [17], 91%; in the series on Candida albicans [19] it was 82.89%; in the series on Candida albicans [20] it was 42.3%. The inhibition entry in the series on Candida albicans [16], in the series with Candida albicans [18], in the series on Nakaseomyces glabratus and in the series with Candida albicans [22] was “inactive” in each case. For the same molecule, the outcome with Candida albicans [21] was inactive.
As to `CC(O)CCn1nnc(-c2ccccc2)n1` (racemic), the inhibition at 16 µg/mL in the series on Candida albicans [1] was 98.9%. In addition, the inhibition at 8 µg/mL in the series with Candida albicans [2] was 98.9%. The inhibition at 4 µg/mL in the series on Candida albicans [3] was determined as 99%. For the same molecule, the inhibition at 2 µg/mL in the series on Candida albicans [4] stood at 98.9%. The inhibition at 1 µg/mL with Candida albicans [5] turned out to be 99%. Moreover, the inhibition at 0.5 µg/mL with Candida albicans [6] stood at 99%. Further, in the series on Candida albicans [7], the inhibition at 0.25 µg/mL stood at 99%. For the same molecule, the inhibition at 0.12 µg/mL with Candida albicans [8] stood at 99%. In addition, the inhibition at 0.06 µg/mL with Candida albicans [9] was found to be 98.9%. In addition, the inhibition at 0.03 µg/mL with Candida albicans [10] turned out to be 98.8%. In the series with Candida albicans [11], the MIC came to 0.125 µg/mL (≈ 0.573 µM).

These data come from ChEMBL document CHEMBL3588797, “Tetrazole activity against Candida albicans. The role of KEX2 mutations in the sensitivity to (±)-1-[5-(2-chlorophenyl)-2H-tetrazol-2-yl]propan-2-yl acetate” (Bioorg Med Chem Lett, 2015).
